Earlier results, collected in patent publication US6399819B1, “Process for purifying creatine” (BASF Aktiengesellschaft, priority 1999, dated 2002).

Details: recrystallization from water

temperature above which decomposition of creatine to creatinine and N-methylhydantoin increases to a level no longer acceptable: about 80 °C
SMILES: CN(CC(=O)O)C(=N)N [creatine]
